Reference: article PMC4476799, “Englerin A Agonizes the TRPC4/C5 Cation Channels to Inhibit Tumor Cell Line Proliferation” (PLoS ONE, 2015)
Where two headings read alike, the source gives them in different places.

Tested on: cancer cell lines from the cancer cell line encyclopedia (CCLE)
Assay: Cell line profiling (CLiP) proliferation experiment
Assay type: cell-based
Conditions: Homo sapiens; for IC50: read-out: Crossing Point; for EC50: read-out: Inflection Point
Method: Compound profiling experiment and data analysis was performed as previously described. Data was imported and plotted using the Tibco Spotfire DXP application. Lines were categorized as sensitive, intermediate and refractory as follows: Amax<-40 & Inflection Point <2 ~ Sensitive, Amax>-20 & Inflection Point >10 ~ Refractory, all else were called Intermediate. Cancer Cell line HG-U133 Plus 2 data was processed and normalized as described. […] Five sets of refractory cell lines were generated from the pool of refractory cell lines trying to match the lineage composition of the set of sensitive cell lines. The limma package was used as previously described to perform the statistical comparison.

[1] = RS4-11, RS4;11 (haematopoietic_and_lymphoid_tissue)
[2] = RS4-11, cell line RS4;11, haematopoietic_and_lymphoid_tissue, acute_lymphoblastic_B_cell_leukaemia
[3] = RT-112, cell line RT-112, urinary_tract, transitional_cell_carcinoma
[4] = RVH-421, cell line RVH-421, skin
[5] = SCaBER, cell line SCaBER, urinary_tract, transitional_cell_carcinoma
[6] = SET-2, cell line Set-2, haematopoietic_and_lymphoid_tissue, essential_thrombocythaemia
[7] = SF-126, cell line SF126, central_nervous_system, astrocytoma
[8] = SHP77, cell line SHP-77, lung, small_cell_carcinoma
[9] = SJRH30, cell line SJRH30, soft_tissue
[10] = SK-CO-1, cell line SK-CO-1, large_intestine, adenocarcinoma
[11] = SK-ES1, cell line SK-ES-1, bone
[12] = SK-MEL-24, cell line SK-MEL-24, skin
[13] = SK-MES-1, cell line SK-MES-1, lung, squamous_cell_carcinoma
[14] = SK-N-SH, cell line SK-N-SH, autonomic_ganglia
[15] = SKM-1, cell line SKM-1, haematopoietic_and_lymphoid_tissue, acute_myeloid_leukaemia

SMILES: CC(C)[C@@]12C[C@@H](O)[C@@](C)(O1)[C@@H]1CC[C@@H](C)[C@H]1[C@@H]2OC(=O)/C=C/c1ccccc1 [Englerin B]
- IC50 [1]: 17.9 µM
- EC50 [1]: 17.9 µM
- IC50 [2]: 17.9 µM
- EC50 [2]: 17.9 µM
- IC50 (RT-112, RT-112 cells): 16.7 µM
- EC50 (RT-112, RT-112 cells): 16.7 µM
- IC50 [3]: 16.7 µM
- EC50 [3]: 16.7 µM
- IC50 (RVH-421, RVH-421 cells): > 30 µM
- EC50 (RVH-421, RVH-421 cells): 11.6 µM
- IC50 [4]: > 30 µM
- EC50 [4]: 11.6 µM
- EC50 (Raji, Raji cells): 18.4 µM
- IC50 (Raji, cell line Raji): 17.6 µM
- EC50 (Raji, cell line Raji): 18.4 µM
- IC50 (Rec1, REC-1 cells): 18.4 µM
- EC50 (Rec1, REC-1 cells): 18.4 µM
- IC50 (Rec1, cell line REC-1): 18.4 µM
- EC50 (Rec1, cell line REC-1): 18.4 µM
- IC50 (Rh18, RH-18 cells): > 30 µM
- IC50 (Rh18, cell line RH-18): > 30 µM
- EC50 (Rh41, RH-41 (soft_tissue)): 11.6 µM
- IC50 (Rh41, cell line RH-41): 11.6 µM
- EC50 (Rh41, cell line RH-41): 11.6 µM
- IC50 (SCaBER, SCaBER (urinary_tract)): > 30 µM
- EC50 (SCaBER, SCaBER (urinary_tract)): 12.9 µM
- IC50 [5]: > 30 µM
- EC50 [5]: 12.9 µM
- EC50 (SET-2, Set-2 (haematopoietic_and_lymphoid_tissue)): 22.9 µM
- IC50 [6]: 15.9 µM
- EC50 [6]: 22.9 µM
- EC50 (SF-126, SF126 cells): 12.3 µM
- IC50 [7]: 23.2 µM
- EC50 [7]: 12.3 µM
- IC50 (SF-295, cell line SF-295, central_nervous_system, astrocytoma_Grade_IV): 19.8 µM
- IC50 (SHP77, SHP-77 cells): > 30 µM
- EC50 (SHP77, SHP-77 cells): 14.5 µM
- IC50 [8]: > 30 µM
- EC50 [8]: 14.5 µM
- IC50 [9]: 17.4 µM
- EC50 [9]: 15.5 µM
- EC50 (SJSA-1, SJSA-1 cells): 16.1 µM
- IC50 (SJSA-1, cell line SJSA-1, bone): 29.1 µM
- EC50 (SJSA-1, cell line SJSA-1, bone): 16.1 µM
- IC50 (SK-BR-3, SK-BR-3 cells): > 30 µM
- IC50 (SK-BR-3, cell line SK-BR-3, breast): > 30 µM
- EC50 (SK-CO-1, SK-CO-1 (large_intestine)): 11.6 µM
- IC50 [10]: 17.8 µM
- EC50 [10]: 11.6 µM
- IC50 [11]: 21.6 µM
- EC50 [11]: 20.4 µM
- IC50 (SK-LMS-1, SK-LMS-1 cells): > 30 µM
- IC50 (SK-LMS-1, cell line SK-LMS-1, soft_tissue): > 30 µM
- IC50 (SK-LU-1, SK-LU-1 (lung)): > 30 µM
- IC50 (SK-LU-1, cell line SK-LU-1, lung, adenocarcinoma): > 30 µM
- IC50 (SK-MEL3, SK-MEL-3 cells): > 30 µM
- IC50 (SK-MEL3, cell line SK-MEL-3, skin): > 30 µM
- IC50 (SK-MEL-1, cell line SK-MEL-1, skin): 19.6 µM
- IC50 (SK-MEL-2, SK-MEL-2 (skin)): > 30 µM
- IC50 (SK-MEL-2, SK-MEL-2, second row, PRIMARY_SITE (Empty)): > 30 µM
- IC50 (SK-MEL-2, cell line SK-MEL-2, skin): > 30 µM
- IC50 (SK-MEL-5, SK-MEL-5 (skin)): > 30 µM
- IC50 (SK-MEL-5, cell line SK-MEL-5, skin): > 30 µM
- IC50 (SK-MEL-24, SK-MEL-24 (skin)): > 30 µM
- IC50 [12]: > 30 µM
- EC50 [12]: 11.1 µM
- IC50 (SK-MEL-30, cell line SK-MEL-30, skin): 28 µM
- EC50 (SK-MES-1, SK-MES-1 cells): 25 µM
- IC50 [13]: 26.5 µM
- EC50 [13]: 25 µM
- IC50 (SK-N-AS, SK-N-AS (autonomic_ganglia)): > 30 µM
- IC50 (SK-N-AS, cell line SK-N-AS, autonomic_ganglia): > 30 µM
- IC50 (SK-N-DZ, SK-N-DZ cells): > 30 µM
- IC50 (SK-N-DZ, cell line SK-N-DZ, autonomic_ganglia): > 30 µM
- IC50 (SK-N-FI, SK-N-FI (autonomic_ganglia)): > 30 µM
- IC50 (SK-N-FI, cell line SK-N-FI, autonomic_ganglia): > 30 µM
- IC50 (SK-N-SH, cell line SK-N-SH (autonomic_ganglia, NS)): > 30 µM
- IC50 [14]: > 30 µM
- EC50 [14]: 7.74 µM
- IC50 (SK-OV-3, SK-OV-3 (ovary)): > 30 µM
- IC50 (SK-OV-3, cell line SK-OV-3, ovary, adenocarcinoma): > 30 µM
- IC50 (SK-UT-1, SK-UT-1 (soft_tissue)): > 30 µM
- IC50 (SK-UT-1, cell line SK-UT-1, soft_tissue): > 30 µM
- IC50 [15]: 21.1 µM
- EC50 [15]: 24.5 µM
- IC50 (SKM-1, cell line SKM-1): 21.1 µM
- IC50 (SKNBE2, cell line SK-N-BE(2), autonomic_ganglia): > 30 µM
- IC50 (SKNBE2, cell line SK-N-BE(2)): > 30 µM
- IC50 (SNB-19, SNB-19 cells): > 30 µM
- IC50 (SNB-19, cell line SNB-19, central_nervous_system, astrocytoma_Grade_IV): > 30 µM
- IC50 (SNU1, SNU-1 (stomach)): > 30 µM
- EC50 (SNU1, SNU-1 (stomach)): 12.1 µM
